Where “and” joins values, the source holds several entries; their conditions need not be identical. Equal entries are not always repeated. Entries after “also recorded” stand apart in the source; their conditions may differ.
Columns and labels:
[1] = tested on: MMP-9; test: MMP-9 release from HT1080 cells (fluorescent AK411 kit); type: cell-based, human; conditions: 6 h, peptide 1 nM
Protocol: FIG. 4: The S1 peptide inhibits EGF-stimulated migration and MMP-9 secretion in HT1080 cells. Quiescent HT1080 cells were used. In A, cells were left untreated or treated for 6 h with the indicated compounds. MMP-9 release was assayed as described in Methods. In B, cells were allowed to migrate for 6 h in Trans-well filters in the absence or presence of the indicated compounds. Migrated cells were stained and counted as reported in Methods. In A and B, data were expressed as relative increase. Mean and SEM is shown. n represents the number of experiments. In C, cells were wounded and then left unstimulated or stimulated for 6 h with the indicated compounds. Contrast-phase images are representative of 3 different experiments, each performed in duplicate.
BrdU incorporation, migration and wound healing analysis were done as described (3, 11). MMP-9 activity was assayed (12, 13), using the fluorescent AK411 kit (BIOMOL Res. Lab.).

[2] = tested on: PC-3 cells; test: Orthotopic PC-3 prostate cancer model: tumor volume and lymph node metastases; type: in vivo, BALB/c nude mice; conditions: for incidence of lymph node metastasis: vs vehicle; for Total tumor volumes during the study: animals 2.x (0.04 mg/kg by heads of Tables 2-3)
Protocol: Six week-old immunodeficient BALB/c nude mice were allocated to six 15-mice groups according to the body weight. PC-3 cells were inoculated orthotopically into prostates of the mice. Dosing (s.c.) was started at study day 1 and continued daily for 28 days.
Mice were weighed twice a week, and after 4 weeks, mice were sacrificed. Gross necropsy was performed to all animals at the end of the study, and all macroscopic signs were recorded. Volume of the prostate tumors was measured and prostate as well as prostate draining lymph nodes were collected for histology. The number of metastasis in lymph nodes was determined under microscope.
The 0.01 mg/ml, 0.1 mg/ml, 1 mg/ml, 2.5 mg/ml and 5 mg/ml dosing suspensions were prepared from test peptide VAL001 by dilution to PBS. […] New dosing suspensions were prepared every week.
An animal model was used that can be effectively used for testing the effects of cancer drug candidates on the primary tumor growth in prostate microenvironment. In this model, human prostate cancer cells are inoculated into prostate of 4-5 week old male BALB/c nude mice. This mouse strain is immunodeficient, allowing rapid growth and spread of the human cancer cells. Within four weeks after the inoculation, animal develop large tumor to prostate and metastases to regional iliac and sacral lymph nodes. The animals are sacrificed at 4 weeks after inoculation, and their prostate with tumor and regional lymph nodes are collected for further histomorphometric analysis.
Male BALB/c nude mice (BALB/c OlaHsd-Foxn1^nu, obtained from Harlan, The Netherlands) were used for this study. The age of the animals was 6-7 weeks, and their body weights were approximately 16-23 g at the beginning of the study. The mice were specific pathogen free (SPF) and isolator-reared animals. Correct age and good clinical health were qualifications for the study. The acclimatization period for the mice was 4 days. Allocation to groups was performed by randomization procedure based on body weight. The animals were marked with ear marks. For orthotopic inoculations the mice were anesthetized with inhalation of isoflurane. Analgesia was provided before and 2 days after the orthotopic inoculation with buprenorphine: 0.1 mg/kg, s.c.
At the end of the study, the animals were weighed and sacrificed with cervical dislocation under anesthesia. Necropsy was carried out in all animals. Macroscopic findings were recorded on the follow-up forms. Tissue samples from prostate with tumor and lymph nodes were collected for histology and number of metastases in lymph nodes was determined.
Statistical analysis was performed with R: A Language and Environment for Statistical Computing (version 2.14.2; R Development Core Team, Vienna, Austria). The mean and standard deviation of the body weights and the tumor volumes at sacrifice were determined. Normality of the distributions and homogeneity of variance were checked before further analyses. In case of violating these assumptions, either log transformation or other appropriate transformation (e.g. square root, reciprocal) was applied. If the assumptions were fulfilled as such or after transformation, one-way ANOVA was used to study if the values obtained between the groups were statistically different (with p<0.05). If differences were found, Tukey's HSD test was used for pairwise comparison between all groups. If the assumptions were not fulfilled even after the transformations described above, the non-parametric Kruskal-Wallis test followed by Mann-Whitney U-test were used.
The statistical analysis of incidence of lymph node metastases was done using Fisher's exact test as one-sided test in which the null hypothesis reflected the assumption that the treatment […].

[3] = tested on: endometriosis lesion; test: In-vivo model of endometriosis (K-ras transgenic donor tissue in wild-type animals), first study; parameters: species or system mice; conditions: injected for 21 days, four treated animals
Protocol: In a first study, a total of 4 treatment and 5 control animals were generated in a novel in-vivo model of endometriosis (Research Horizons, University of Cambridge, 2009 Issue 8, GB 0715635.9) K-rasV12/Ah-Cre transgenic mice were crossed with Rosa26R mice to generate KrasV12+/−/Ah-Cre+/−/ROSA26R-LacZ+/− transgenic mice. The F1 offspring were inbred to generate F2 K-rasV12+/−/Ah-Cre+/+/ROSA26R-LacZ+/+ transgenic mice. The presence of the transgenes was determined by PCR using gene specific primers for K-ras, Cre and Rosa26R-LacZ. Tissue was collected from donor animals previously treated with hormones etc. and was divided between wild-type animals that were then injected with drug or vehicle for 21 days.

[4] = tested on: offspring from dosed females; conditions: mouse, in vivo
From the text: Offspring from dosed females were mated and checked for fertility to determine possible inheritable effects.

[5] = target: AR association with Src-SH3 domain (Homo sapiens, UniProt P12931); conditions: androgen-challenged LNCaP cells, reference 10; cited from earlier work
Chain of AR association with Src-SH3 domain (P12931 2-536 limits assumed): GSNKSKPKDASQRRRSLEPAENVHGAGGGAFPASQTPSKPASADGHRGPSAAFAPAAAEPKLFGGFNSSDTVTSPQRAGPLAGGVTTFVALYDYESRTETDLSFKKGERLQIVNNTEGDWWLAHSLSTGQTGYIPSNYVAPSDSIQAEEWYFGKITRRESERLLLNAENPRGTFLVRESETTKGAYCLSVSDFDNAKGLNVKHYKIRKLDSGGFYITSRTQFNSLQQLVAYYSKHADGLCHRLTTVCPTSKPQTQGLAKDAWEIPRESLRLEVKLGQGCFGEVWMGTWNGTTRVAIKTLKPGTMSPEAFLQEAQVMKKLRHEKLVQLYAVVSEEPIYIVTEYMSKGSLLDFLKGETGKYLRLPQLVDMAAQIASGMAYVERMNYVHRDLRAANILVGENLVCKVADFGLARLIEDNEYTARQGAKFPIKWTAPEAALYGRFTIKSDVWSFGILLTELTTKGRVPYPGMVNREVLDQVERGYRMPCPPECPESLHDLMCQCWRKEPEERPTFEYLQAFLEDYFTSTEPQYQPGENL

Substance: Ac-PPPHPHARIK-NH2 [VAL001]
- EGF-stimulated MMP-9 secretion [1]: inhibits
- inhibition of the development of lymph node metastases ([2]; 0.04 mg/kg s.c. daily 28 days): 50%
- incidence of lymph node metastasis ([2]; 0.04 mg/kg s.c. daily 28 days, Fisher's exact test p=0.01643): statistically significantly less; also recorded: inhibited statistically significantly
- inhibition of the development of lymph node metastases ([2]; 0.4 mg/kg s.c. daily 28 days): 50%
- incidence of lymph node metastasis ([2]; 0.4 mg/kg s.c. daily 28 days, Fisher's exact test p=0.03913): statistically significantly less; also recorded: inhibited statistically significantly
- decrease in tumor volume ([2]; 0.4 mg/kg s.c. daily 28 days, not statistically significant): 35%
- statistically significant effects on orthotopic tumor growth ([2]; 0.04-20 mg/kg s.c. daily 28 days): not observed
- tumor volumes between the treatment groups ([2]; 0.04-20 mg/kg s.c. daily 28 days, at sacrifice): no statistically significant differences
- Total tumor volumes during the study ([2]; day 5, single animals): 22.3 and 11.5 and 21.5 and 16.9 and 26.7 and 29.3 (2×) and 27.8
- Total tumor volumes during the study ([2]; day 7, single animals, in mm³ (unit assumed)): 21.1 and 7.8 and 17.8 and 22.0 and 16.9 and 18.3 and 31.2 and 29.6
- Total tumor volumes during the study ([2]; day 9, single animals, in mm³ (unit assumed)): 28.2 and 18.2 and 32.4 and 21.3 and 29.6 and 57.8 and 76.4 and 34.4
- Total tumor volumes during the study ([2]; day 12, single animals, in mm³ (unit assumed)): 51.3 and 20.1 and 39.6 and 56.1 and 24.6 and 57.0 and 116.3 and 70.3
- Total tumor volumes during the study ([2]; day 14, single animals, in mm³ (unit assumed)): 71.8 and 55.8 and 72.5 and 65.8 and 54.7 and 114.0 and 176.1 and 106.7
- Total tumor volumes during the study ([2]; day 16, single animals, in mm³ (unit assumed)): 87.7 and 70.9 and 140.3 and 85.4 and 62.6 and 167.3 and 183.2 and 112.1
- Total tumor volumes during the study ([2]; day 19, single animals, in mm³ (unit assumed)): 202.0 and 163.3 and 186.2 and 140.9 and 104.4 and 181.7 and 332.0 and 227.3
- Total tumor volumes during the study ([2]; day 21, single animals, in mm³ (unit assumed)): 182.3 and 152.1 and 196.2 and 139.5 and 120.6 and 278.5 and 365.1 and 240.1
- Total tumor volumes during the study ([2]; day 23, single animals, in mm³ (unit assumed)): 158.4 and 95.0 and 289.5 and 181.8 and 127.8 and 278.8 and 386.3 and 323.8 and 345.6
- Total tumor volumes during the study ([2]; day 26, single animals, in mm³ (unit assumed)): 277.2 and 233.9 and 254.0 and 243.7 and 239.4 and 381.2 and 618.5 and 328.7 and 518.9
- Total tumor volumes during the study ([2]; day 29, single animals, in mm³ (unit assumed)): 382.9 and 204.8 and 258.0 and 216.8 and 245.1 and 418.0 and 750.0 and 430.6 and 288.0
- absence of lesion following treatment [3]: three showed complete absence of lesion
- fertility of offspring from dosed females [4]: no abnormalities noted
- AR association with Src-SH3 domain [5]: competes

Reference: US10400008B2, “Modulators of the SRC-kinase activity for preventing or treating metastatic cancer” (Cancer Research Technology Limited, priority 2013, dated 2019)
